Target: soluble guanylate cyclase (sGC) (Homo sapiens (Human), UniProt Q02108+Q02153)
Assay: sGC-HEK-cGMP assay with SNP incubation, LC/MS detection (Example 2A)
Assay type: cell-based
Settings: HEK293 cells, 10 μM SNP, LC/MS detection; for Emax: 100% = BAY 41-2272 at 10 μM, read-out: HEK assay Emax - unconstrained (%); for EC50: top of curve not fitted to 100%, read-out: HEK assay EC50 - unconstrained
Method: Human embryonic kidney cells (HEK293), endogenously expressing soluble guanylate cyclase (sGC), were used to evaluate the activity of test compounds. Compounds stimulating the sGC receptor should cause an increase in the intracellular concentration of cGMP. HEK 293 cells were seeded in Dulbecco's Modification of Eagle's Medium supplemented with fetal bovine serum (10% final) and L-glutamine (2 mM final) in a 200 L volume at a density of 1×10^5 cells/well in a poly-D-lysine coated 96 well flat bottom plate and grown overnight at 37° C. Medium was aspirated and cells were washed with 1× Hank's Buffered Saline Salt Solution (200 μL). Cells were then incubated for 15 minutes at 37° C. with 200 μL of a 0.5 mM 3-isobutyl-1-methylxanthine (IBMX) solution. Test article and sodium nitroprusside solutions (x μM concentration for test article solution and 10 μM concentration for SNP solution; wherein x is one of the following concentrations: 30 μM, 10 μM, 3 μM, 1 μM, 0.3 μM, 0.1 μM, 0.03 μM, 0.01 μM, 0.003 μM, 0.001 μM, 0.0003 μM or 0.0001 μM) were then added to the assay mixture (2 μL each) and the resulting mixture incubated at 37° C. for 10 minutes. After the 10 minute incubation, the assay mixture was aspirated and 0.1M HCl (200 μL) was added to the cells. The plate was incubated at 4° C. for 30 minutes in the 0.1M HCl to stop the reaction and lyse the cells. The plates were then centrifuged at 1,200 g for 5 minutes at room temperature. Supernatants were collected and transferred to a new flat bottom 96 well plate for analysis by HPLC-MS. Vehicle controls were carried out using DMSO (1%) solutions. A known sGC stimulator, BAY 41-2272, was used as the positive control. Samples were diluted with an equal volume of 1 M Ammonium Acetate (pH 7) to neutralize samples for better chromatography. A 2× cGMP standard solution was prepared in 0.1 M HCl and then diluted with an equal volume of 1 M Ammonium Acetate, with the following final concentrations in nM: 1024, 512, 256, 128, 64, 32, 16, 8, 4, 2, 1. cGMP concentrations in the test plates were determined from each sample using the LC/MS conditions shown in Table 2 below and the calculated cGMP standard curve. EC50 values were calculated from concentration-response curves generated with GraphPad Prism Software. Data were normalized to a high control using the following equation: 100*(Sample−Low Control)/(High Control−Low Control), where the low control is the average of 6 samples treated with 1% DMSO, and the high control is the average of 8-12 samples treated with 10 uM BAY 41-2272. Data were fit using a non-linear regression, sigmoidal dose response, 3 parameter fits.

soluble guanylate cyclase (sGC), sequence (Q02153 whole entry): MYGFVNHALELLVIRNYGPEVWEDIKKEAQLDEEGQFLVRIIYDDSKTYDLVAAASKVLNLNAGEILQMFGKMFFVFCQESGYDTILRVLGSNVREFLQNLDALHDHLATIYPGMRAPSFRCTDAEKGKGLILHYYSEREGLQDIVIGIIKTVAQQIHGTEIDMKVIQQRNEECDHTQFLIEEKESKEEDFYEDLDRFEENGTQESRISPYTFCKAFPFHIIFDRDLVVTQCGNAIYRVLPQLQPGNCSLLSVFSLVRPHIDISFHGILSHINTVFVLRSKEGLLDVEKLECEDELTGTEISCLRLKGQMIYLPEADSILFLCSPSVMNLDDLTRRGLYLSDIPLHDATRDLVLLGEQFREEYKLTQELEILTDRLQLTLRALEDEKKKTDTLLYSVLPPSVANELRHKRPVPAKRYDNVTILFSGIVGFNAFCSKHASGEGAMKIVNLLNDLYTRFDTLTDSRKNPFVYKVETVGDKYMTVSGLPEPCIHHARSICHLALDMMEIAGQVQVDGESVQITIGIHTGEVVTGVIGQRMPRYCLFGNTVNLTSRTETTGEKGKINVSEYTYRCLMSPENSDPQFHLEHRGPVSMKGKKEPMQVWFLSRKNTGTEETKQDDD
soluble guanylate cyclase (sGC), sequence (Q02108 whole entry): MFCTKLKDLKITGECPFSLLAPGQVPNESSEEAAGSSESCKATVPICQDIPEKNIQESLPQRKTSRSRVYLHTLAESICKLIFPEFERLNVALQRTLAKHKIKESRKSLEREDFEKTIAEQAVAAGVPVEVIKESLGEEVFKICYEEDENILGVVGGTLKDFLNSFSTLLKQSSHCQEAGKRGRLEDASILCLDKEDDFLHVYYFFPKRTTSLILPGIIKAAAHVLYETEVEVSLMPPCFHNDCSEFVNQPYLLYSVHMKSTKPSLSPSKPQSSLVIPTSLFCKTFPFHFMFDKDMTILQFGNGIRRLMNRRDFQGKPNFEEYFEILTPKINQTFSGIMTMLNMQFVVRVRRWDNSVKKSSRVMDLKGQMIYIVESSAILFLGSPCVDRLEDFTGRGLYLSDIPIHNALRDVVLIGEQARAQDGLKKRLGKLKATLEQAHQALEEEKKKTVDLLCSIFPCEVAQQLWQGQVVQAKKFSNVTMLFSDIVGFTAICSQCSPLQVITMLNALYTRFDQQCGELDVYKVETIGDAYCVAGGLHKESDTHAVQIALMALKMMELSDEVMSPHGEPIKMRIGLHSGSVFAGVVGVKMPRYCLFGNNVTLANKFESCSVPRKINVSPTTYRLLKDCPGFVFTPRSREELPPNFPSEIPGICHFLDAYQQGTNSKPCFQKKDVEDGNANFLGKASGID

Row | SMILES | Emax [%] | EC50 [nM]
1 | CN(C)CCNc1nc(-c2cc(-c3ccon3)n(Cc3ccccc3F)n2)ncc1F [Compound I-7] | 40 to 60 | 1000 to 5000
2 | CN(C)c1nc(-c2cc(-c3ccon3)n(Cc3ccccc3F)n2)ncc1F [Compound I-8] | 60 to 80 | 100 to 500
3 | Fc1ccccc1Cn1nc(-c2ncc(F)c(NC3CCCCC3)n2)cc1-c1ccon1 [Compound I-9] | 80 to 100 | 100 to 500
4 | CC(C)(C)OC(=O)N1CCC(Nc2nc(-c3cc(-c4ccon4)n(Cc4ccccc4F)n3)ncc2F)CC1 [Compound I-12] | 100 to 120 | 1000 to 5000
5 | OC[C@@H]1CCCN1c1nc(-c2cc(-c3ccon3)n(Cc3ccccc3F)n2)ncc1F [Compound I-13] | 60 to 80 | 100 to 500
6 | COC1CCN(c2nc(-c3cc(-c4ccon4)n(Cc4ccccc4F)n3)ncc2F)C1 (stereo not shown) [Compound I-17] | 60 to 80 | 100 to 500
7 | OC1CCCN(c2nc(-c3cc(-c4ccon4)n(Cc4ccccc4F)n3)ncc2F)C1 (stereo not shown) [Compound I-18] | 60 to 80 | –
8 | OC1CCN(c2nc(-c3cc(-c4ccon4)n(Cc4ccccc4F)n3)ncc2F)C1 (stereo not shown) [Compound I-20] | 60 to 80 | 100 to 500
9 | CC(C)(C)OC(=O)NC1CN(c2nc(-c3cc(-c4ccon4)n(Cc4ccccc4F)n3)ncc2F)C1 [Compound I-21, tert-butyl (1-(5-fluoro-2-(1-(2-fluorobenzyl)-5-(isoxazol-3-yl)-1H-pyrazol-3-yl)pyrimidin-4-yl)azetidin-3-yl)carbamate] | 40 to 60 | 100 to 500
10 | COC1CCN(c2nc(-c3cc(-c4ccon4)n(Cc4ccccc4F)n3)ncc2F)CC1 [Compound I-22] | 60 to 80 | 100 to 500
11 | CC(C)(C)OC(=O)NC1CCCN(c2nc(-c3cc(-c4ccon4)n(Cc4ccccc4F)n3)ncc2F)C1 (stereo not shown) [Compound I-25] | 40 to 60 | 500 to 1000
12 | CC(C)(C)OC(=O)N1CC(Nc2nc(-c3cc(-c4ccon4)n(Cc4ccccc4F)n3)ncc2F)C1 [Compound I-26] | 60 to 80 | 100 to 500
13 | CC(C)(C)OC(=O)N1CCCC(Nc2nc(-c3cc(-c4ccon4)n(Cc4ccccc4F)n3)ncc2F)C1 (stereo not shown) [Compound I-27] | 60 to 80 | 500 to 1000
14 | Fc1ccccc1Cn1nc(-c2ncc(Cl)c(N3CCOCC3)n2)cc1-c1ccon1 [Compound I-28] | 60 to 80 | 1000 to 5000
15 | O=C1CC2(CCN(c3nc(-c4cc(-c5ccon5)n(Cc5ccccc5F)n4)ncc3F)CC2)CN1 [Compound I-30] | 80 to 100 | 100 to 500
16 | O=C(CNc1nc(-c2cc(-c3ccon3)n(Cc3ccccc3F)n2)ncc1F)N1CCOCC1 [Compound I-31] | 60 to 80 | 500 to 1000
17 | Fc1ccccc1Cn1nc(-c2ncc(F)c(N3CC4(COC4)C3)n2)cc1-c1ccon1 [Compound I-32] | 60 to 80 | 100 to 500
18 | CC1COCCN1c1nc(-c2cc(-c3ccon3)n(Cc3ccccc3F)n2)ncc1F (stereo not shown) [Compound I-33] | 60 to 80 | 100 to 500
19 | COC(=O)C1CCCN1c1nc(-c2cc(-c3ccon3)n(Cc3ccccc3F)n2)ncc1F (stereo not shown) [Compound I-34] | 40 to 60 | 500 to 1000
20 | NC1CCCN(c2nc(-c3cc(-c4ccon4)n(Cc4ccccc4F)n3)ncc2F)C1 (stereo not shown) [Compound I-37] | 60 to 80 | 1000 to 5000
21 | Fc1ccccc1Cn1nc(-c2ncc(F)c(NC3CNC3)n2)cc1-c1ccon1 [Compound I-38] | 60 to 80 | 5000 to 10000
22 | NC1CN(c2nc(-c3cc(-c4ccon4)n(Cc4ccccc4F)n3)ncc2F)C1 [Compound I-40, 1-(5-fluoro-2-(1-(2-fluorobenzyl)-5-(isoxazol-3-yl)-1H-pyrazol-3-yl)pyrimidin-4-yl)azetidin-3-amine] | 60 to 80 | 1000 to 5000
23 | O=C(O)C1CCCN1c1nc(-c2cc(-c3ccon3)n(Cc3ccccc3F)n2)ncc1F (stereo not shown) [Compound I-41] | 60 to 80 | –

Second part, the compound after the results:

Row | Emax [%] | EC50 [nM] | SMILES
24 | 80 to 100 | 100 to 500 | Fc1ccccc1Cn1nc(-c2ncc(F)c(N3CCC4(CC3)COC4)n2)cc1-c1ccon1 [Compound I-42]
25 | 60 to 80 | 1 to 100 | Fc1ccccc1Cn1nc(-c2ncc(F)c(N3CCC4(CCOCC4)C3)n2)cc1-c1ccon1 [Compound I-43]
26 | 40 to 60 | 1000 to 5000 | CC(C)(C)OC(=O)N1CCC2(CCN(c3nc(-c4cc(-c5ccon5)n(Cc5ccccc5F)n4)ncc3F)C2)C1 (stereo not shown) [Compound I-45]
27 | 60 to 80 | 1000 to 5000 | NC1CCN(c2nc(-c3cc(-c4ccon4)n(Cc4ccccc4F)n3)ncc2F)C1 (stereo not shown) [Compound I-46]
28 | 40 to 60 | 100 to 500 | Fc1ccccc1Cn1nc(-c2ncc(F)c(N3CCCC4(COC4)C3)n2)cc1-c1ccon1 [Compound I-47]
29 | 60 to 80 | 1000 to 5000 | COC(=O)C1CCCCN1c1nc(-c2cc(-c3ccon3)n(Cc3ccccc3F)n2)ncc1F (stereo not shown) [Compound I-48]
30 | 60 to 80 | 1000 to 5000 | COC(=O)N(C(=O)OC)c1nc(-c2cc(-c3ccon3)n(Cc3ccccc3F)n2)ncc1F [Compound I-52]
31 | 80 to 100 | 100 to 500 | Fc1ccccc1Cn1nc(-c2ncc(F)c(N3CCCC(F)C3)n2)cc1-c1ccon1 (stereo not shown) [Compound I-56]
32 | 100 to 120 | 500 to 1000 | CCN(CC)c1nc(-c2cc(-c3ccon3)n(Cc3ccccc3F)n2)ncc1F [Compound I-60]
33 | 80 to 100 | 500 to 1000 | Fc1ccccc1Cn1nc(-c2ncc(F)c(N3CC(F)(F)C3)n2)cc1-c1ccon1 [Compound I-61]
34 | 60 to 80 | 100 to 500 | Fc1ccccc1Cn1nc(-c2ncc(F)c(N3CCC(F)(F)C3)n2)cc1-c1ccon1 [Compound I-63]
35 | 80 to 100 | 1 to 100 | CC1(Nc2nc(-c3cc(-c4ccon4)n(Cc4ccccc4F)n3)ncc2F)CCOCC1 [Compound I-64]
36 | 60 to 80 | 500 to 1000 | CC(C)(C)Nc1nc(-c2cc(-c3ccon3)n(Cc3ccccc3F)n2)ncc1F [Compound I-65]
37 | 60 to 80 | 100 to 500 | NC(=O)C1CCCN(c2nc(-c3cc(-c4ccon4)n(Cc4ccccc4F)n3)ncc2F)C1 (stereo not shown) [Compound I-66]
38 | 60 to 80 | 5000 to 10000 | O=C(O)[C@H](CO)Nc1nc(-c2cc(-c3ccon3)n(Cc3ccccc3F)n2)ncc1F [Compound I-68]
39 | 80 to 100 | 100 to 500 | CCNC(=O)NC1CCCN(c2nc(-c3cc(-c4ccon4)n(Cc4ccccc4F)n3)ncc2F)C1 (stereo not shown) [Compound I-70]
40 | 60 to 80 | 100 to 500 | CCNC(=O)NC1CN(c2nc(-c3cc(-c4ccon4)n(Cc4ccccc4F)n3)ncc2F)C1 [Compound I-71]
41 | 60 to 80 | 100 to 500 | O=S1(=O)CCN(C2CN(c3nc(-c4cc(-c5ccon5)n(Cc5ccccc5F)n4)ncc3F)C2)CC1 [Compound I-72]
42 | 40 to 60 | 5000 to 10000 | COc1cnc(-c2cc(-c3ccon3)n(Cc3ccccc3F)n2)nc1N1CCOCC1 [Compound I-73]
43 | 40 to 60 | 1000 to 5000 | Fc1ccccc1Cn1nc(-c2ncc(F)c(-n3cccn3)n2)cc1-c1ccon1 [Compound I-74]
44 | 60 to 80 | 100 to 500 | O=C(O)C1CCCCCN1c1nc(-c2cc(-c3ccon3)n(Cc3ccccc3F)n2)ncc1F (stereo not shown) [Compound I-75]
45 | 60 to 80 | 500 to 1000 | O=C(O)C1CCN(c2nc(-c3cc(-c4ccon4)n(Cc4ccccc4F)n3)ncc2F)C1 (stereo not shown) [Compound I-76]

Reference: patent US10183021B2, “sGC stimulators” (Ironwood Pharmaceuticals, Inc., priority 2013, dated 2019)
